# Source: patent publication US20150216880A1, “INDUCING LACTATION IN NURSING FEMALES” (priority 2014, published 2015)
# System: lactation in nursing females
# Experiment: Topical cream applied to the nipple of a nursing mother; reported milk production
# Type: in vivo, human
# Settings: nursing parent with child, 2 ml of Lubriderm Ultra cream with two percent, by volume, stanozolol, left on about two minutes, then washed off
# Procedure: In use, the cream is applied to a nipple prior to breast feeding. Generally, the cream is left on the nipple for about five to about twenty minutes and, usually, for about five to about fifteen minutes.
# It is then removed by washing. Then the mother is then ready to being nursing.
# A nursing parent having a child with the ability to achieve adequate lactation has applied a 2 ml quantity of a Lubriderm Ultra cream having two percent, by volume, stanozolol added thereto. The so-applied cream is left on for about two minutes. It is then washed off.
structure (smiles),measurement,value
C[C@]12Cc3c[nH]nc3C[C@@H]1CC[C@@H]1[C@@H]2CC[C@@]2(C)[C@H]1CC[C@]2(C)O [stanozolol],milk production (reported by the mother),increase in milk production
